The results in this text go back to patent US20250025440A1, “COMPOSITIONS AND METHODS FOR MANAGEMENT OF HUMAN PAPILLOMA VIRUS-ASSOCIATED CANCERS” (LOMA LINDA UNIVERSITY, priority 2021, published 2025).

The subject of assay [1] is SCC19 (HPV-) cells. Description: Western blotting of p53 and apoptosis mediators. The class given is cell-based. The following applies: HPV- cell line, 0.5 μM and 1 μM, 24 hours. How it is done: (§1) Based on the cell viability studies described above, as well as AlphaScreen™ data showing that that GA-OH prevents E6 from binding to both caspase 8 and the p53-recruiter, E6AP, activation of p53 and associated apoptotic effects could be contributing to the decrease in cell viability. Levels of p53 and its target gene product, p21, were evaluated using immunoblotting. […] FIG. 8A is a photographic image of blots analyzing Caspase 8 expression and activation of downstream targets. SCC19, SCC90 and SCC104 were seeded and treated with vehicle, 0.5 μM and 1 μM Of GA-OH for 24 hours. Activation of p53 was tested by blotting for p53 expression and activation. Caspase 8 activation and apoptosis was tested by blotting for Caspase 8 expression and activation of downstream targets. These observations were corroborated by an induction of the levels of the target of p53, p21. […] The basal levels of p53 in the HPV^+ cell lines are lower compared to the HPV^− cell line.
(§2) The effect of GA-OH treatment on activation of another target of E6, caspase 8, and its downstream targets in the apoptosis cascade was evaluated. […] There is a noticeable increase in caspase 8 levels in the HPV^− cell line upon exposure to GA-OH. […] Quantification of relative expression of each of the targets above using B-actin as a loading control. FIGS. 9A-9E are graphical representations of the relative expression of cleaved PARP, p53, p21, cleaved caspase 3, and cleaved caspase 8, respectively in SCC19, SCC90 and SCC104 cell lines when treated with vehicle, or 0.5 μM, or 1 μM of GA-OH, each of the targets above using B-actin as a loading control is shown.
(§3) Adherent cells were washed with ice cold PBS. Cell lysis buffer containing protease inhibitor cocktail was added and cells were scraped off into a tube on ice. The cells were incubated on ice for 10 minutes. Cell lysates were separated by SDS-PAGE and electrophoretically transferred to PVDF membranes. Following blocking, antibodies directed against caspase 8, p53, cleaved PARP, cleaved caspase 3, p21, and β-actin (Cell signaling) were applied at 1:5000 dilution. Anti-mouse and anti-rabbit secondary antibodies were then employed (LI-COR Biosciences, Lincoln, NE, USA). Signals were measured using the Odyssey Infrared Imaging system (LI-COR Biosciences) and quantified using Image J.

Assay [2] has as its system SCC90 and SCC104 (HPV+) cells. Nature of the assay: Western blotting of p53 and apoptosis mediators. The class given is cell-based. The conditions noted are these: 0.5 μM and 1 μM, 24 hours. Here is the method: as §1, §2, §3

For 30-hydroxygambogic acid [GA-OH], the “caspase 8 cleavage” value in assay [1] is “no visible cleavage of caspase 8”. In assay [2], the PARP cleavage result was “cleavage is modest”, the “caspase 3 cleavage” value is listed as “cleaved dose-dependently”, the “caspase 8 cleavage” value is “cleavage of caspase 8 in a dose-dependent manner” and the p53 level entry was “increase of p53”. Further, in assay [2] (vs vehicle), the p21 level entry is recorded as “robust induction of p21 levels”.
